Measurements from PubChem BioAssay (NCI).
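Compound exposure: 48 hours, 5 concentrations, 96-well plates. The concentration for full growth arrest is given as TGI.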

Legend:
Assay in all cases: DTP human tumour cell line panel, 48 h
MDA-N = system: MDA-N
NCI/ADR-RES ovarian = system: NCI/ADR-RES ovarian
M14 melanoma = system: M14 melanoma
TK-10 renal = system: TK-10 renal
HS 578T breast = system: HS 578T breast
SW-620 colon = system: SW-620 colon
SK-OV-3 ovarian = system: SK-OV-3 ovarian
HOP-92 NSCLC = system: HOP-92 NSCLC
HOP-62 NSCLC = system: HOP-62 NSCLC
MALME-3M melanoma = system: MALME-3M melanoma
786-0 renal = system: 786-0 renal

Row | SMILES | TGI (MDA-N) [µM] | TGI (NCI/ADR-RES ovarian) [µM] | TGI (M14 melanoma) [µM] | TGI (TK-10 renal) [µM] | TGI (HS 578T breast) [µM] | TGI (SW-620 colon) [µM] | TGI (SK-OV-3 ovarian) [µM] | TGI (HOP-92 NSCLC) [µM] | TGI (HOP-62 NSCLC) [µM] | TGI (MALME-3M melanoma) [µM] | TGI (786-0 renal) [µM]
1 | CCCS(=O)OC1C(C2COC(C)(C)O2)OC2OC(C)(C)OC21 (stereo not drawn) | > 70.6 | 46.1 | 37.8 | 31.3 | > 100 | 32.8 | > 86.8 | 22.8 | 32.5 | 18 | 27.8
2 | NC(=S)N1N=C(c2ccc3c(c2)CCC3)CC1c1ccccc1 (stereo not drawn) | > 100 | 58.6 | > 100 | 87.1 | > 100 | > 100 | 88.6 | 85.7 | 87 | 74.4 | > 100
3 | O=C(NC(Cc1c[nH]c2ccccc12)C(=O)O)/C(=C/c1ccccc1)NC(=O)c1ccccc1 (stereo not drawn) | > 100 | > 100 | > 100 | > 100 | > 100 | > 100 | > 100 | 94.8 | > 100 | > 100 | > 100
4 | NC(=O)CN1CCN(c2nc(N3CCCC3)c3nc(Cl)c(NCc4ccccc4)nc3n2)CC1 | 16.4 | 40.9 | 17.5 | 34.7 | 24.2 | 31.4 | 20.4 | 20.6 | 4.89 | 16.3 | 18
5 | Cc1cc(C(C)(C)C)c(OCCCN2CCOCC2)c(C(C)(C)C)c1 | 34 | 32 | 31.7 | 36.2 | 38.6 | 32.3 | 35.6 | 35 | 38.6 | 35 | 31.9
6 | CN(CCc1ccccn1)C(=S)N/N=C/c1ccccn1 | 37.4 | 18 | 2.34 | 0.668 | > 87.2 | > 100 | > 51.3 | 3.66 | 3.48 | 8.81 | > 38.8
7 | CCCCCCCCCCCOCCC1C(C(C)OCCN2CCCC2)OC2OC(C)(C)OC21 (stereo not drawn) | 3.52 | 19.6 | 1.01 | 6.6 | 6.93 | 3.55 | 8.96 | 4.75 | 4.38 | 3.08 | 5.88
8 | Cn1c(=O)n2n(c1=O)C1C(=CC2)C2C=CC1n1c(=O)n(C)c(=O)n12 (stereo not drawn) | > 100 | > 100 | > 100 | > 100 | > 100 | > 100 | > 100 | > 100 | > 100 | > 100 | > 100
9 | COC(=O)C1CC(C=O)=C(SC)N1 (stereo not drawn) | > 50 | > 50 | > 50 | > 50 | > 50 | > 50 | > 50 | > 50 | > 50 | > 50 | > 50
10 | C=C1C(=O)O[C@H]2[C@@H](O)[C@H](C)CCC/C(C)=C/CC[C@@]3(C)O[C@@H]3C[C@@H]12 | 25.6 | 37.9 | 18.4 | 3.95 | > 100 | 39.9 | 34.2 | 8.04 | 56.3 | 30.6 | 14.9
11 | CN(C)CCCN1C(=O)N(CCCN(C)C)c2c3cc(O)ccc3nc3c([N+](=O)[O-])ccc1c23 | > 100 | > 100 | 79.1 | > 100 | 60 | 53.2 | > 100 | 36.7 | 52.7 | 33.9 | 27.2
12 | CC(C)(CN1CCCCC1)C(=O)CC(SCCS(=O)(=O)O)c1ccc(Cl)c(Cl)c1 (stereo not drawn) | 8.4 | 22.9 | 3.8 | 18.9 | 7 | 4.61 | 45 | 6.18 | 18.7 | 22.1 | 3.4
13 | CC(CN(C)C)C(O)(c1ccccc1)c1ccccc1 (stereo not drawn) | > 100 | > 100 | > 100 | > 100 | > 100 | > 100 | > 100 | > 100 | > 100 | > 100 | > 100
14 | Cc1nc(-c2ccc(Cl)cc2)cn2c1nc1ccccc12 | > 100 | > 100 | > 100 | > 100 | > 100 | > 100 | > 100 | > 100 | > 100 | > 100 | > 100
15 | CNc1ccc([N+](=O)[O-])cc1C(=O)N1CCC[C@H]1CO | > 100 | > 100 | > 100 | > 100 | > 100 | > 100 | > 100 | > 100 | > 100 | > 100 | > 100
16 | CCOc1cc(C=Nc2ccc(Oc3ccc(Cl)cc3)c(Cl)c2)ccc1O | 61.7 | 52.9 | 77.6 | > 100 | 45.4 | > 100 | 58.3 | 39.6 | 45.6 | 52.6 | 34
17 | C[C@@H](CC(O)C(O)C(C)(C)O)C1CCC23CC12CCC1[C@@]2(C)CCC(=O)C(C)(C)C2CC(OC2OC(CO)C(O)C(O)C2O)[C@]13C (stereo partly drawn) | > 10 | > 10 | > 10 | > 10 | > 10 | > 10 | > 10 | > 10 | > 10 | > 10 | > 10
18 | COc1ccc(/C=C(\C#N)c2nc(-c3cc4ccccc4oc3=O)cs2)cc1 | > 100 | > 100 | 86 | 65.6 | > 100 | 66.8 | 36.6 | 36.2 | 29.5 | 91.3 | 41.4
19 | NC(Cc1ccccc1)C(=O)O (stereo not drawn) | > 100 | > 100 | > 100 | > 100 | > 100 | > 100 | > 100 | > 100 | > 100 | > 100 | > 100
20 | O=C1C(=O)C(CCCO)(CCCO)CCCCCCCCC1(CCCO)CCCO | > 100 | > 100 | > 100 | > 100 | > 100 | > 100 | > 100 | > 100 | > 100 | > 100 | > 100
21 | CCCCC[C@@H]1OC(=O)[C@@]2(CC3c4ccccc4C2c2ccccc23)[C@H]1C(=O)OC | > 100 | > 100 | > 100 | > 100 | > 100 | > 100 | > 100 | > 100 | > 100 | > 100 | > 100
22 | COc1cc2c(cc1OCc1ccccc1)NC(=O)[C@@H]1C[C@@H](O)CN1C2=O | > 100 | > 100 | > 100 | > 100 | > 100 | > 100 | > 100 | > 100 | > 100 | > 100 | > 100
23 | Oc1cc(Br)cc2cc(Br)cnc12 | > 100 | > 100 | 29.2 | > 100 | 63.8 | > 100 | > 100 | 83.8 | > 100 | 58.2 | 71.1
24 | C[N+](C)(C)c1nc(N)nc2c1ncn2C1OC(CO)C(O)C1O (stereo not drawn) | > 100 | > 100 | > 100 | > 100 | > 100 | > 100 | > 100 | > 100 | > 100 | > 100 | > 100
25 | Cc1ccc2c3ccc4c(c3n(C)c2c1)C(=O)C=CC4=O | > 10 | > 10 | > 10 | > 10 | > 10 | 4.58 | > 10 | 7.26 | > 10 | 6.01 | 5.63
26 | COC(=O)[C@]12CCC(=O)N1[C@H](C(=O)O)Cc1c2[nH]c2ccccc12 | > 100 | > 100 | > 100 | > 100 | > 100 | > 100 | > 100 | > 100 | > 100 | > 100 | > 100
27 | O=[N+]([O-])c1ccc(-c2nc3ccccc3o2)cc1 | > 100 | > 100 | > 100 | > 100 | > 100 | > 100 | > 100 | > 100 | > 100 | > 100 | > 100
28 | Cc1nc2ccccc2n1CCc1nc2ccccc2[nH]1 | > 100 | > 100 | > 100 | > 100 | > 100 | > 100 | > 100 | > 100 | > 100 | > 100 | > 100
